Laboratory results published in US20220395500A1, “SMALL MOLECULE ACTIVATORS OF INTERFERON REGULATORY FACTOR 3 AND METHODS OF USE THEREOF” (Neuralexo, Inc., priority 2020, published 2022).
Where two headings read alike, the source gives them in different places.

Experiments:
[1] = tested on: IRF-Lucia luciferase reporter (ISRE) in THP1-Dual cells; assay: THP1-Dual IRF-Lucia luciferase reporter assay (ISRE activation); assay type: cell-based, human; details: Homo sapiens, THP1-Dual, read-out: THP1 IRF EC50
Protocol: (§1) THP1 Dual (InvivoGen) cell suspensions were cultured in RPMI 1640 (Hyclone, Logan, Utah) supplemented with 10% fetal bovine serum (Hyclone), 100 U/mL Normocin (Invivogen), and 50 U/mL PenStrep (Gibco, Dublin, Ireland) between a density of 7·10^5-2·10^6 cells/mL. Every other passage, media was supplemented with 5 U/mL Blasticidin and 100 U/mL Zeocin to maintain the expression constructs. White, flat-bottom 384-well plates (Greiner, Kremsmunster, Austria, 781080) were seeded with 2.5·10^4 cells/well in a total of 50 μL media containing 5 ng/mL phorbolmyristic acid (PMA) using a Matrix WellMate (Thermo Scientific) dispenser. After 48 hours of incubation at 37° C., media was removed using a BioTek ELx405 CW plate washer set to aspirate and wash each well three times with 65 μL 1×PBS. Plates were reloaded with 50 μL media without PMA and treatments added. Lipopolysaccharide in dimethylsulfoxide (DMSO) was transferred to control wells using a HP D300 microdispenser to a final concentration of 313 ng/mL. Compounds from chemical library plates were copied using a Sciclone (Caliper LifeSciences) mounted with a 384-pin transfer tool to obtain a final concentration of 10 μM. After incubation with treatments for 24 hours, 10 μL of supernatant media from each well was transferred into a white, flat-bottom 384-well plate for luminescence readout and a black-walled, clear flat-bottom 384-well plate for absorbance readout.
(§2) Specifically, to enable screening of novel chemical entities (NCEs) in a larger screening effort, a robust high-throughput cell-based assay system for primary hit identification of ISRE activators based on the above-mentioned target validation was desired. Human ISRE activity was verified using a THP-1 monocyte line containing the NF-κB-SEAP and IRF-Lucia luciferase dual reporter (THP1-Dual; Invivogen) that features two reporter genes, SEAP (secreted embryonic alkaline phosphatase) and Lucia luciferase, thereby enabling the simultaneous study of the NF-κB and IRF signalling pathways. The Lucia luciferase reporter is under the control of an ISG54 (interferon-stimulated gene) minimal promoter in conjunction with five IFN-stimulated response elements. The SEAP gene is driven by an IFN-β minimal promoter fused to five copies of the NF-κB consensus transcriptional response element and three copies of the c-Rel binding site. Both reporter proteins are readily measurable in the cell culture supernatant when using QUANTI-LUC™ and QUANTI-Blue SEAP detection reagents.
The responsiveness of the human THP-1 Dual cell line was evaluated in an array of assay conditions to obtain sensitive and reproducible results for the activation of IRF and NF-κB reporters. […] All transfer steps are fully automated using high throughput robotic equipment. Briefly, cells are seeded in differentiation medium using a Matrix WellMate fitted with the WellMate Stacker (Thermo Scientific) and incubated at 37° C. with 5% CO2 for 48 h. Following differentiation, cells are washed using a BioTek ELx405 Select CW plate washer and growth medium added with the Matrix WellMate. Programmed control treatments are added to wells using a D300 digital dispenser fitted with T8+ dispense heads (Hewlett Packard) designed to dispense nanoliter quantities of material. Compounds from library plates are added using a pin tool fitted to a Sciclone ALH 3000 Workstation (Caliper Life Sciences) programmed with Maestro v4.4. After treatment, plates are returned to incubators for 24 hours. To measure reporter expression, supernatant is collected using the Sciclone and dispensed into 2 plates: 1) a white 384-well assay plate for Lucia luminescence measurements and 2) a clear-bottom black 384-well assay plate for SEAP absorbance measurements.

J774-Dual cytotoxicity = assay type: cell-based, mouse; details: mouse, J774-Dual cells, read-out: J774 cytotox CC50
Procedure, shortened: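 CC50 derived from 8-point concentration series in mouse J774-Dual reporter cells, with viability read by CellTiter-Glo in the same plate. Run in parallel with EC50 and ISRE:NFκB ratio determination for cross-species confirmation.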

[2] = tested on: NF-κB-SEAP reporter in THP1-Dual cells; assay: THP1-Dual NF-κB-SEAP reporter counterscreen; assay type: cell-based, human; details: Homo sapiens, THP1-Dual, read-out: THP1 NFkB EC50
Protocol: as §1, §2
Using the experimental design and data analysis outlined above, optimized assay conditions were obtained. The responsiveness of the human THP-1 Dual cell line was evaluated in an array of assay conditions to obtain sensitive and reproducible results for the activation of IRF and NF-κB reporters. An optimal plating density and differentiation protocol for these cells was established in a 384-well format. All transfer steps are fully automated using high throughput robotic equipment. Briefly, cells are seeded in differentiation medium using a Matrix WellMate fitted with the WellMate Stacker (Thermo Scientific) and incubated at 37° C. with 5% CO2 for 48 h. Following differentiation, cells are washed using a BioTek ELx405 Select CW plate washer and growth medium added with the Matrix WellMate. Programmed control treatments are added to wells using a D300 digital dispenser fitted with T8+ dispense heads (Hewlett Packard) designed to dispense nanoliter quantities of material. Compounds from library plates are added using a pin tool fitted to a Sciclone ALH 3000 Workstation (Caliper Life Sciences) programmed with Maestro v4.4. After treatment, plates are returned to incubators for 24 hours. To measure reporter expression, supernatant is collected using the Sciclone and dispensed into 2 plates: 1) a white 384-well assay plate for Lucia luminescence measurements and 2) a clear-bottom black 384-well assay plate for SEAP absorbance measurements. […]

[3] = THP1-Dual cytotoxicity (Cell Titer Glo, ATP); assay type: cell-based, human; details: human, THP1-Dual cells, read-out: Thp1 cytotox CC50
Procedure, shortened: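 CC50, the concentration killing half the cells, was derived from ATP-dependent CellTiter-Glo luminescence. Cells were THP1-Dual (human) and compound was tested as an 8-point dose-response series, with viability read in the same plate.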

[4] = tested on: IRF-Lucia luciferase reporter (ISRE) in J774-Dual cells; assay: J774-Dual IRF-Lucia luciferase reporter assay (ISRE activation); assay type: cell-based, mouse; details: for J774 IRF % activation at peak: Mouse Reporter Cell Line J774; for EC50: Mus musculus, J774, Mouse Reporter Cell Line J774, read-out: J774 IRF EC50
Protocol: First, optimal assay conditions and assay quality in 384-well format were determined. As mentioned, the mouse macrophage J774 cell line (J774-Dual, InvivoGen) stably transfected with the same inducible reporters described above (e.g., IRF-Lucia luciferase and NF-κB-SEAP) was used. The responsiveness of the J774-Dual cell line was investigated in an array of assay conditions to obtain sensitive and reproducible results for the activation of the IRF and NF-κB reporters. An optimal plating density and conditions for these cells was established for these cells in a 384-well format. Assay work-flow is similar to that discussed above for the THP1-Dual assay without a need for cell differentiation. Thus, cells are seeded directly in growth medium and incubated at 37° C. in a 5% C02 incubator for 24 hours prior to the programmed treatments being added as described herein.
The primary high throughput screen used the HTS platform of human THP1 monocyte cells containing the IRF-Lucia luciferase and NFκB-SEAP (secreted embryonic alkaline phosphatase) dual reporter (THP1-Dual, Invivogen), enabling the simultaneous study of the IRF and NFκB signaling pathways respectively. As discussed, the Lucia luciferase reporter gene is under the control of an ISG54 (interferon-stimulated gene) minimal promoter in conjunction with five interferon-stimulated response elements (ISRE). The SEAP gene is driven by an IFNβ minimal promoter fused to five copies of the NFκB consensus transcriptional response element and three copies of the c-Rel binding site. Both IRF-Lucia luciferase and NFκB-SEAP reporter proteins are secreted and readily measurable in the cell culture supernatant when using QUANTI-Luc™ and QUANTI-Blue™ detection reagents, respectively. Identified “hits” were confirmed in a secondary screen with an 8-point dose response curve. Hits were further screened for activity in the mouse using the mouse J774 macrophage-like cell line containing the identical reporter constructs (J774-Dual, Invivogen).
The OTRADI Small Molecule Library of approximately 246,000 diverse compounds (see below for description) was screened using the THP1-Dual based HTS platform described above. All transfer steps in the screen are fully automated, thus reducing variability. Primary screening included a single data point or dose for each molecule. After data normalization was applied for each assay run, “hit” selection was performed on the plates that pass the quality control (QC) criterion. Hits were defined as samples having values above the activity cutoff determined based on noise level of the assay to reduce false positive rates. In the pilot study discussed above this activity value was >3σ above the ISRE mean with the added criteria of NFκB activation being lower than […] from the mean to identify IRF selective compounds. The ratio of ISRE:NFκB activity was also calculated as a selectivity index for prioritizing hit selection. Primary hits underwent secondary screening to determine the 50% effective concentration (EC50) and 50% cytotoxic concentration (CC50) of these agents using an 8-point dose-response curve in the human THP1-Dual cells. Cytotoxicity was measured in the plate using Cell Titer Glo (Promega). Identified candidate compounds were further screened (orthogonal screen) for cross species activity in the validated mouse J774-Dual assay using an 8-point dose-response format to determine EC50 and CC50 values as well as ISRE:NFκB ratios. A general process flow for the experimental design laid out above is depicted at FIG. 12.

[5] = Human Reporter Cell Line, 8-point dose response

SMILES | CC50 (J774-Dual cytotoxicity; Mouse Reporter Cell Line) | EC50 [2, 5] | CC50 ([3]; Human Reporter Cell Line) | CC50 (J774-Dual cytotoxicity; Mouse Reporter Cell Line J774) | CC50 ([3]; Human Reporter Cell Line THP1) | EC50 ([2]; Human Reporter Cell Line THP1) | further results
O=C(Nc1ccc(N2CCN(C(=O)c3cccs3)CC2)cc1)c1ccc(-c2ccccc2)cc1 [NA-19] | > 25 µM | 1.47 µM | 8.49 µM | – | – | – | EC50 [1, 5]: 1.02 µM
CC(Oc1ccc(C(=O)Nc2ccc(N3CCN(C(=O)c4cccs4)CC3)cc2)cc1)c1ccccc1 (centres unmarked) [NA-22] | > 25 µM | ~2.62 µM | > 25 µM | – | – | – | –
O=C(Nc1ccc(N2CCN(C(=O)c3cccs3)CC2)cc1)c1ccc2c(c1)OCCO2 [NA-28] | > 25 µM | 3.02 µM | > 25 µM | – | – | – | –
COc1c(C)cc(Br)cc1C(=O)Nc1ccc(N2CCN(C(=O)c3cccs3)CC2)cc1 [NA-31] | > 25 µM | ~3.24 µM | > 25 µM | – | – | – | –
O=C(Nc1ccc(N2CCN(C(=O)c3cccs3)CC2)cc1)c1ccc(OCc2ccc(OC(F)(F)F)cc2)cc1 [NA-34] | > 25 µM | 6.38 µM | > 25 µM | – | – | – | EC50 [1, 5]: 4.42 µM
CCOc1cccc(COc2ccc(C(=O)Nc3ccc(N4CCN(C(=O)c5cccs5)CC4)cc3)cn2)c1 [NA-71] | > 10 µM | 6.57 µM | > 10 µM | – | – | – | EC50 [1, 5]: 3.33 µM
COC(=O)Cc1ccc(NC(=O)c2ccc(NC(=O)c3ccco3)cc2)cc1 [NC-3] | > 25 µM | ~6.13 µM | > 25 µM | – | – | – | EC50 [1, 5]: 4.13 µM
COc1ccc(C(=O)Nc2cc(-c3nc4cc(Cl)ccc4o3)ccc2C)cc1[N+](=O)[O-] [ND-40] | – | – | – | > 25 µM | 16.1 µM | – | EC50 ([1]; Human Reporter Cell Line THP1): 2.63 µM; J774 IRF % activation at peak [4]: 119.6%; EC50 [4]: 4.5 µM
CCOc1ccc(C(=O)Nc2cc(-c3nc4ncccc4o3)ccc2C)cc1[N+](=O)[O-] [ND-48] | – | – | – | > 25 µM | 7.26 µM | – | EC50 ([1]; Human Reporter Cell Line THP1): ~3.05 µM; J774 IRF % activation at peak [4]: 4.4%; EC50 [4]: 10 µM
Cc1ccc(-c2nc3cc(Cl)ccc3o2)cc1NC(=O)c1cc([N+](=O)[O-])c(C)c([N+](=O)[O-])c1 [ND-61] | – | – | – | > 25 µM | > 25 µM | ~5.61 µM | –
Cc1ccc(-c2nc3ccccc3s2)cc1NC(=O)c1cc(I)ccc1Cl [ND-62] | – | – | – | > 25 µM | > 25 µM | ~9.34 µM | –
Cc1ccc(C(=O)Nc2ccc(O)c(-c3nc4ccccc4s3)c2)cc1[N+](=O)[O-] [ND-63] | – | – | – | > 25 µM | 27.4 µM | ~3.2 µM | –
COc1ccc(C(=O)Nc2cc(-c3nc4ccccc4s3)ccc2C)cc1Br [ND-68] | – | – | – | > 25 µM | > 25 µM | ~9.75 µM | –
Oc1ccc(-c2nc3ccc(O)cc3o2)cc1 [ND-74] | – | – | – | > 25 µM | > 25 µM | 32.5 µM | –
Cc1ccc(-c2nc3ccccc3s2)cc1NC(=O)c1ccc(C(F)(F)F)c([N+](=O)[O-])c1 [ND-79] | – | – | – | > 25 µM | > 25 µM | ~11.3 µM | –
COc1ccc2oc(-c3ccc(C)c(NC(=O)c4ccc(OC)c([N+](=O)[O-])c4)c3)nc2c1 [ND-86] | – | – | – | > 25 µM | > 25 µM | ~3.85 µM | –
COc1ccc(C(=O)Nc2cc(-c3nc4cc(OCCCN5CCCC5)ccc4o3)ccc2C)cc1[N+](=O)[O-] [ND-92] | – | – | – | > 25 µM | > 25 µM | ~2.33 µM | –
COc1c(Cl)cc(C(=O)Nc2cc(-c3nc4cc(Cl)ccc4o3)ccc2C)cc1Cl [ND-101] | – | – | – | > 25 µM | > 25 µM | ~3.75 µM | –
Cc1cc2nc(-c3ccc(C)c(NC(=O)c4ccc([N+](=O)[O-])cc4Cl)c3)oc2cc1C [ND-102] | – | – | – | – | – | 57.9 µM | EC50 ([1]; Human Reporter Cell Line THP1): 24.7 µM
Cc1ccc(C(=O)Nc2cc(-c3nc4ccccc4s3)ccc2C)c(C)c1 [ND-104] | – | – | – | – | – | 12.2 µM | –
Cc1cc2nc(-c3ccc(C)c(NC(=O)c4ccc(OCc5ccccc5)cc4)c3)oc2cc1C [ND-105] | – | – | – | > 10 µM | > 10 µM | 2.19 µM | –
